According to ChEMBL document CHEMBL1909046, “DrugMatrix in vitro pharmacology data”:

Assays:
[1] = target: T1, Alpha-1A adrenergic receptor (Rattus norvegicus, UniProt P43140); assay: DRUGMATRIX: Alpha-1A adrenergic receptor radioligand binding (ligand: prazosin); assay type: cell membranes, Wistar, Submaxillary gland, Membrane; details: Not Active = under 50% inhibition at 10 µM
T1 sequence (P43140 whole entry): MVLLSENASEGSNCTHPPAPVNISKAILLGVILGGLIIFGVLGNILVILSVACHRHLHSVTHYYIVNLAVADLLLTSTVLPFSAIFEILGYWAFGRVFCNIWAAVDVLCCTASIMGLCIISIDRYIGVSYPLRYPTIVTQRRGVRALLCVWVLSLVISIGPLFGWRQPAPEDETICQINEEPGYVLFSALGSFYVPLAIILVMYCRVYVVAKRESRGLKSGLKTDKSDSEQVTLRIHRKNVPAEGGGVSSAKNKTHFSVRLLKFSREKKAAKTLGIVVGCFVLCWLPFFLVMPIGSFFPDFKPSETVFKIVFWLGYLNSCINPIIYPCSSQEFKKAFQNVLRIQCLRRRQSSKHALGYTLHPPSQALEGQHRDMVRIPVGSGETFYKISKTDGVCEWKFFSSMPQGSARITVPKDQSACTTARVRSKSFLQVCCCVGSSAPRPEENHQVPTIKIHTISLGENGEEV

[2] = target: T2, Calcitonin receptor (Homo sapiens, UniProt P30988); assay type: cell membranes, Membrane; details: t47d; further: in other assays of this panel Not Active means under 50% inhibition at 10 µM
T2 sequence (P30988 whole entry): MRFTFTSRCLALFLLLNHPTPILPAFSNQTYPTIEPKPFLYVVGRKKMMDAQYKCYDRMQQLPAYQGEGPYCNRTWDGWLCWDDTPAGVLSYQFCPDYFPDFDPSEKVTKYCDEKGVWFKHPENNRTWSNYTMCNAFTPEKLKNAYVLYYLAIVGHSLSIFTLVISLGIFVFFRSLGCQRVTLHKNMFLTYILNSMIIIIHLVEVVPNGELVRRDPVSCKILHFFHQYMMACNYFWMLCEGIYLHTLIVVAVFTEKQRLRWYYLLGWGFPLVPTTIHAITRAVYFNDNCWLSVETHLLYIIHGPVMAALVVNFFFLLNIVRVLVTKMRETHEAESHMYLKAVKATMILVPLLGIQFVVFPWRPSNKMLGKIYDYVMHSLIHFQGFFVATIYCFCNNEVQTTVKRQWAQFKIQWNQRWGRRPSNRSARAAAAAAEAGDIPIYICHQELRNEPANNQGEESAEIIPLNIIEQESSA

[3] = target: T3, Thromboxane-A synthase (Homo sapiens, UniProt P24557); assay: biochemical; assay type: tissue-based, Platelet; details: platelet;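 further: enzyme inhibition assay with PGH2 supplied as substrate; in other assays of this panel Not Active means under 50% inhibition at 10 µM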
T3 sequence (P24557 whole entry): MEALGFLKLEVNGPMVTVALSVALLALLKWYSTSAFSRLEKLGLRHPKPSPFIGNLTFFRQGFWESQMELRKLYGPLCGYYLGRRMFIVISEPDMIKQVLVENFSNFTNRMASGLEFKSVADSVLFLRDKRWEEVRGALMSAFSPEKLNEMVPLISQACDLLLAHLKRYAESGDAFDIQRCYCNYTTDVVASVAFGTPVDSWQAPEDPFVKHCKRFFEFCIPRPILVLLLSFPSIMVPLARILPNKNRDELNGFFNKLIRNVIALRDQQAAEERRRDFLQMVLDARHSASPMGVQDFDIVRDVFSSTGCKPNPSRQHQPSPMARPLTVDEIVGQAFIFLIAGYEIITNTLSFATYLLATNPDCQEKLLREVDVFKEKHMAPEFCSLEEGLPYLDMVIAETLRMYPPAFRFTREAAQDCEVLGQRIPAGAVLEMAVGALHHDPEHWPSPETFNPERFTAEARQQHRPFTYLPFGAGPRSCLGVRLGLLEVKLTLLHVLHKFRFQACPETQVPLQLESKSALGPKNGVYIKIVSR

[4] = target: D(1A) dopamine receptor (Homo sapiens, UniProt P21728); assay: DRUGMATRIX: Dopamine D1 radioligand binding (ligand: [3H] SCH-23390); assay type: cell membranes, CHO, Membrane; details: Not Active = under 50% inhibition at 10 µM
[5] = target: T4, Cysteinyl leukotriene receptor 1 (Homo sapiens, UniProt Q9Y271); assay type: cell membranes, Membrane; details: cho-k1; further: in other assays of this panel Not Active means under 50% inhibition at 10 µM
T4 sequence (Q9Y271 whole entry): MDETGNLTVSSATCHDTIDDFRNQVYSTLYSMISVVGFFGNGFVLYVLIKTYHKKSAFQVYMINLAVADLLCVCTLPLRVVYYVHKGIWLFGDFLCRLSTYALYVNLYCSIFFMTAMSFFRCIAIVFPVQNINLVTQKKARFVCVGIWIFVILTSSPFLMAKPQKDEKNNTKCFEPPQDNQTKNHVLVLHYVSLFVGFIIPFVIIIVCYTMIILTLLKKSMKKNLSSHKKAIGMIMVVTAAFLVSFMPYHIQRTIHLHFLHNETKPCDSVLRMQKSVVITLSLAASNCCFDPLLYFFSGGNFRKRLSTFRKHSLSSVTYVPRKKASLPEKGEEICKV

[6] = DRUGMATRIX: Purinergic P2X radioligand binding (ligand: [3H] alpha, beta-Methylene-ATP); assay type: cell membranes, Oryctolagus cuniculus, New Zealand albino, Urinary bladder, Membrane; details: Not Active = under 50% inhibition at 10 µM

Chain of D(1A) dopamine receptor (P21728 whole entry): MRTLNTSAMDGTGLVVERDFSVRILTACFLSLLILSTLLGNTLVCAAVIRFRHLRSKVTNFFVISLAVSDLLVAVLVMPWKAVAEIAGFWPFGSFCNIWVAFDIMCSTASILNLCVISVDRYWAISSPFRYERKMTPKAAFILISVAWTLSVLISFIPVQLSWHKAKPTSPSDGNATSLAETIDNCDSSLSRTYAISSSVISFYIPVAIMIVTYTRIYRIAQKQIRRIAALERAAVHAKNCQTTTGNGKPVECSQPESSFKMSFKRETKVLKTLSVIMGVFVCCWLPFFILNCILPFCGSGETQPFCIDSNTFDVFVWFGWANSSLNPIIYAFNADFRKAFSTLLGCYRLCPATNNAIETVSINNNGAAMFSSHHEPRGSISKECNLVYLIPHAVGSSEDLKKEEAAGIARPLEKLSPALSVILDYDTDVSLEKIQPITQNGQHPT

Compound | IC50 [1] | IC50 [2] | IC50 [3] | IC50 ([4]; cho) | IC50 [5] | IC50 [6] | Ki [6] | Ki [5] | IC50 ([1]; read-out: IC50) | Ki ([1]; read-out: Ki) | IC50 ([4]; read-out: IC50) | Ki ([4]; read-out: Ki)
CCOC(=O)[C@H](CCc1ccccc1)N[C@@H](C)C(=O)N1CCC[C@H]1C(=O)O | Not Active | Not Active | Not Active | Not Active | Not Active | Not Active | Not Active | – | – | – | – | –
C[C@@H]1CC[C@H]2[C@@H](C)C(=O)O[C@@H]3O[C@@]4(C)CC[C@@H]1[C@]32OO4 [ARTEMISININ] | Not Active | Not Active | Not Active | Not Active | Not Active | Not Active | Not Active | – | – | – | – | –
C#C[C@]1(O)CC[C@H]2[C@@H]3CCc4cc(O)ccc4[C@H]3CC[C@@]21C [ETHINYL ESTRADIOL] | Not Active | Not Active | Not Active | Not Active | Not Active | Not Active | Not Active | – | – | – | – | –
COc1ccc2cc(CCC(C)=O)ccc2c1 [NABUMETONE] | Not Active | Not Active | Not Active | Not Active | Not Active | Not Active | Not Active | – | – | – | – | –
C=C1/C(=C\C=C2/CCC[C@]3(C)[C@@H]([C@H](C)CCCC(C)C)CC[C@@H]23)C[C@@H](O)C[C@@H]1O [ALFACALCIDOL] | Not Active | Not Active | Not Active | Not Active | Not Active | Not Active | Not Active | – | – | – | – | –
COc1ccc(Cc2nccc3cc(OC)c(OC)cc23)cc1OC [PAPAVERINE] | Not Active | Not Active | Not Active | Not Active | – | Not Active | Not Active | Not Active | – | – | – | –
CNC(=C[N+](=O)[O-])NCCSCc1csc(CN(C)C)n1 [NIZATIDINE] | Not Active | Not Active | Not Active | Not Active | Not Active | Not Active | Not Active | – | – | – | – | –
COc1ccccc1OCC(O)CO (stereo unspecified) [GUAIFENESIN] | Not Active | Not Active | Not Active | Not Active | Not Active | Not Active | Not Active | – | – | – | – | –
CC(C)(Sc1cc(C(C)(C)C)c(O)c(C(C)(C)C)c1)Sc1cc(C(C)(C)C)c(O)c(C(C)(C)C)c1 [PROBUCOL] | Not Active | Not Active | Not Active | Not Active | Not Active | Not Active | Not Active | – | – | – | – | –
[N-]=[N+]=CC(=O)OC[C@H](N)C(=O)O [AZASERINE] | Not Active | Not Active | Not Active | Not Active | Not Active | Not Active | Not Active | – | – | – | – | –
Cc1c(N(C)CS(=O)(=O)[O-])c(=O)n(-c2ccccc2)n1C.[Na+] [DIPYRONE SODIUM] | Not Active | Not Active | Not Active | Not Active | Not Active | Not Active | Not Active | – | – | – | – | –
CN1C(=O)CN=C(c2ccccc2)c2cc(Cl)ccc21 [DIAZEPAM] | Not Active | Not Active | Not Active | Not Active | Not Active | Not Active | Not Active | – | – | – | – | –
N[C@@H](Cc1ccc(F)cc1)C(=O)O | Not Active | Not Active | Not Active | Not Active | Not Active | Not Active | Not Active | – | – | – | – | –
C[C@]12CCC(=O)C=C1CC[C@@H]1[C@@H]2[C@@H](O)C[C@@]2(C)[C@H]1CC[C@]2(O)C(=O)CO [HYDROCORTISONE] | Not Active | Not Active | Not Active | Not Active | Not Active | Not Active | Not Active | – | – | – | – | –
Nc1nc(N)nc(NC2CC2)n1 [CYROMAZINE] | Not Active | Not Active | Not Active | Not Active | Not Active | Not Active | Not Active | – | – | – | – | –
CC(C)C[C@H]1C(=O)N2CCC[C@H]2[C@]2(O)O[C@](NC(=O)[C@@H]3C=C4c5cccc6[nH]c(Br)c(c56)C[C@H]4N(C)C3)(C(C)C)C(=O)N12 [BROMOCRIPTINE] | – | Not Active | Not Active | – | Not Active | Not Active | Not Active | – | 6.96 nM | 2.82 nM | 2890 nM | 1440 nM
CC(=O)O[C@]1(C(C)=O)CC[C@H]2[C@@H]3C=C(Cl)C4=CC(=O)[C@@H]5C[C@@H]5[C@]4(C)[C@H]3CC[C@@]21C [CYPROTERONE ACETATE] | Not Active | Not Active | Not Active | Not Active | Not Active | Not Active | Not Active | – | – | – | – | –
Cc1cccc(Nc2ccccc2C(=O)O)c1C [MEFENAMIC ACID] | Not Active | Not Active | Not Active | Not Active | Not Active | Not Active | Not Active | – | – | – | – | –
O=C(O)c1cccnc1 [NIACIN] | Not Active | Not Active | Not Active | Not Active | Not Active | Not Active | Not Active | – | – | – | – | –
CC[C@]1(O)CC[C@H]2[C@@H]3CCC4=CCCC[C@@H]4[C@H]3CC[C@@]21C | Not Active | Not Active | Not Active | Not Active | Not Active | Not Active | Not Active | – | – | – | – | –
CN(C(=O)CCCOc1ccc2[nH]c(=O)ccc2c1)C1CCCCC1 [CILOSTAMIDE] | Not Active | Not Active | Not Active | Not Active | Not Active | Not Active | Not Active | – | – | – | – | –
Oc1ccccc1O [CATECHOL] | Not Active | Not Active | Not Active | Not Active | Not Active | Not Active | Not Active | – | – | – | – | –
O=C(/C=C/c1ccc(O)c(O)c1)OCCc1ccccc1 [CAFFEIC ACID PHENETHYL ESTER] | Not Active | Not Active | Not Active | Not Active | Not Active | Not Active | Not Active | – | – | – | – | –
Nc1nc(Cl)nc2c1ncn2[C@H]1C[C@H](O)[C@@H](CO)O1 [CLADRIBINE] | Not Active | Not Active | Not Active | Not Active | Not Active | Not Active | Not Active | – | – | – | – | –
C#C[C@]1(O)CC[C@H]2[C@@H]3CCC4=Cc5oncc5C[C@]4(C)[C@H]3CC[C@@]21C [DANAZOL] | Not Active | Not Active | Not Active | – | Not Active | Not Active | Not Active | – | – | – | – | –
